Measured values from ChEMBL document CHEMBL5154793, “Discovery of Thieno[2,3-d]pyrimidine-based KRAS G12D inhibitors as potential anticancer agents via combinatorial virtual screening” (Eur J Med Chem, 2022).
Activity calls are given as the source filed them. The calls are words filed in the database; no cut-off is given here.

Columns and labels:
[1] = Toxicity in BALB/c mouse allografted with mouse CT26 cells assessed as WBC level at 40 to 60 mg/kg, ip administered once a day for 10 days (reference value: 3.090 to 6.730 10^9/L); type: organism-based; conditions: in vivo, 240 h, dose 40-60 mg/kg, time 10 day
SW1990 [2] = assay: Induction of apoptosis in human SW1990 cells assessed as necrotic cells at 4 uM measured after 24 hrs by PI/Annexin V staining based flow cytometric analysis (reference value: 2.69%); type: functional
[3] = Toxicity in BALB/c mouse allografted with mouse CT26 cells assessed as effect on heart morphology at 40 to 60 mg/kg, ip administered once a day for 10 days by H and E staining based microscopic analysis; type: organism-based; conditions: in vivo, 240 h, dose 40-60 mg/kg, time 10 day
HeLa = assay: Antiproliferative activity against human HeLa cells harboring wild type KRAS assessed as inhibition of cell viability after 24 hrs by MTT assay; type: functional, cell-based
[4] = test system: GTPase KRas (Homo sapiens), P01116 [G12D]; assay: Inhibition of KRAS G12D mutant downstream signalling in human SW1990 cells assessed as suppression of ERK phosphorylation incubated for 24 hrs by pull down based Western blotting analysis; type: cell-based; conditions: dose <= 16.0 µM, DDE = dose-dependent effect
GTPase KRas (Homo sapiens), P01116 [G12D], sequence (P01116 whole entry G12D, looked up): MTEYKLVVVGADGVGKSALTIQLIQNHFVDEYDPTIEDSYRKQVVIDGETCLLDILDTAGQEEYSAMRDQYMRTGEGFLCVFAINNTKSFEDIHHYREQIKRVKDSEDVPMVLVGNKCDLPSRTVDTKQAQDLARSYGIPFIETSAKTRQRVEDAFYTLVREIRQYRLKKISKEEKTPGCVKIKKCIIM

CT26 [5] = assay: Induction of apoptosis in mouse CT26 cells assessed as early apoptotic cells at 4 uM measured after 24 hrs by PI/Annexin V staining based flow cytometric analysis (reference value: 11.2%); type: functional
CT26 [6] = assay: Antitumor activity against mouse CT26 cells allografted in BALB/c mouse assessed as inhibition of tumor growth at 40 mg/kg, ip administered once a day for 10 days; type: functional; conditions: CT26, 240 h, time 10 day, read-out: TGI
PANC-1 = assay: Antiproliferative activity against human PANC1 cells harboring KRAS G12D mutant assessed as inhibition of cell viability after 24 hrs by MTT assay; type: functional, cell-based; conditions: PANC-1, 24 h
[7] = test system: GTPase KRas (Homo sapiens), P01116 [G12D]; assay: Binding affinity to human his-tagged KRAS G12D mutant assessed as change in enthalpy by isothermal titration calorimetry
SW1990 [8] = assay: Induction of apoptosis in human SW1990 cells assessed as early apoptotic cells at 2 uM measured after 24 hrs by PI/Annexin V staining based flow cytometric analysis (reference value: 10.7%); type: functional
CT26 [9] = assay: In vivo inhibition of KRAS G12D mutant (unknown origin) mediated downstream signalling in mouse CT26 cells allografted in BALB/c mouse assessed as decrease in phosphorylation level of Raf in tumor tissue at 40 to 60 mg/kg, ip administered once a day for 10 days by Western blotting analysis; type: functional, organism-based; conditions: dose 40-60 mg/kg, time 10.0 day
CT26 [10] = assay: Induction of apoptosis in mouse CT26 cells assessed as early apoptotic cells at 2 uM measured after 24 hrs by PI/Annexin V staining based flow cytometric analysis (reference value: 11.2%); type: functional
CT26 [11] = assay: Antiproliferative activity against mouse CT26 cells harboring KRAS G12D mutant assessed as inhibition of cell viability after 24 hrs by MTT assay; type: functional, cell-based; conditions: CT26, 24 h
CT26 [12] = assay: Induction of apoptosis in mouse CT26 cells assessed as late apoptotic cells at 4 uM measured after 24 hrs by PI/Annexin V staining based flow cytometric analysis (reference value: 3.21%); type: functional
[13] = Toxicity in BALB/c mouse allografted with mouse CT26 cells assessed as MCHC level at 40 to 60 mg/kg, ip administered once a day for 10 days (reference value: 338 to 361 g/L); type: organism-based; conditions: in vivo, 240 h, dose 40-60 mg/kg, time 10 day
SW1990 [14] = assay: Induction of apoptosis in human SW1990 cells assessed as late apoptotic cells at 4 uM measured after 24 hrs by PI/Annexin V staining based flow cytometric analysis (reference value: 3.75%); type: functional
SW1990 [15] = assay: Inhibition of GTP bound KRAS in human SW1990 cells assessed as down regulation of KRAS-GTP protein level incubated for 12 hrs by Pull-Down based Western blotting analysis; type: functional, cell-based; conditions: dose 10-20 µM, DDE = dose-dependent effect
CT26 [16] = assay: Inhibition of KRAS G12D mutant (unknown origin) downstream signalling in mouse CT26 cells assessed as suppression of ERK phosphorylation incubated for 24 hrs by pull down based Western blotting analysis; type: cell-based; conditions: dose <= 16.0 µM, DDE = dose-dependent effect
CT26 [17] = assay: Induction of apoptosis in mouse CT26 cells assessed as viable cells at 4 uM measured after 24 hrs by PI/Annexin V staining based flow cytometric analysis (reference value: 84.8%); type: functional; conditions: read-out: Activity
[18] = Toxicity in BALB/c mouse allografted with mouse CT26 cells assessed as monocyte level at 40 to 60 mg/kg, ip administered once a day for 10 days (reference value: 0.170 to 0.540 10^9/L); type: organism-based; conditions: in vivo, 240 h, dose 40-60 mg/kg, time 10 day
[19] = Toxicity in BALB/c mouse allografted with mouse CT26 cells assessed as effect on kidney morphology at 40 to 60 mg/kg, ip administered once a day for 10 days by H and E staining based microscopic analysis; type: organism-based; conditions: in vivo, 240 h, dose 40-60 mg/kg, time 10 day
[20] = Toxicity in BALB/c mouse allografted with mouse CT26 cells assessed as lymphocyte level at 40 to 60 mg/kg, ip administered once a day for 10 days (reference value: 5.6 to 35.2 %); type: organism-based; conditions: in vivo, 240 h, dose 40-60 mg/kg, time 10 day
[21] = Toxicity in BALB/c mouse allografted with mouse CT26 cells assessed as effect on liver morphology at 40 to 60 mg/kg, ip administered once a day for 10 days by H and E staining based microscopic analysis; type: organism-based; conditions: in vivo, 240 h, dose 40-60 mg/kg, time 10 day
GTPase KRas = GTPase KRas (Homo sapiens, UniProt P01116, G12D); assay: Binding affinity to human his-tagged KRAS G12D mutant assessed as dissociation constant by isothermal titration calorimetry
GTPase KRas, sequence (P01116 whole entry G12D): as the sequence (P01116 whole entry G12D, looked up) above

SW1990 [22] = assay: Antiproliferative activity against human SW1990 cells harboring KRAS G12D mutant assessed as inhibition of cell viability after 24 hrs by MTT assay; type: functional, cell-based; conditions: SW1990, 24 h
[23] = target: GTPase KRas (Homo sapiens) (UniProt P01116); assay: Inhibition of wild type KRAS (unknown origin) downstream signalling in human HCT-116 cells assessed as suppression of ERK phosphorylation incubated for 24 hrs by pull down based Western blotting analysis; type: cell-based; conditions: dose <= 8.0 µM, DDE = dose-dependent effect
GTPase KRas (Homo sapiens), sequence (P01116 whole entry, looked up): as the sequence (P01116 whole entry G12D, looked up) above, with D12G counted along it

CT26 [24] = assay: Induction of apoptosis in mouse CT26 cells assessed as viable cells at 8 uM measured after 24 hrs by PI/Annexin V staining based flow cytometric analysis (reference value: 84.8%); type: functional; conditions: read-out: Activity
[25] = Toxicity in BALB/c mouse allografted with mouse CT26 cells assessed as HGB level at 40 to 60 mg/kg, ip administered once a day for 10 days (reference value: 0.319 to 108 g/L); type: organism-based; conditions: in vivo, 240 h, dose 40-60 mg/kg, time 10 day
[26] = Toxicity in BALB/c mouse allografted with mouse CT26 cells assessed as neutrophil level at 40 to 60 mg/kg, ip administered once a day for 10 days (reference value: 1.080 to 1.250 10^9/L); type: organism-based; conditions: in vivo, 240 h, dose 40-60 mg/kg, time 10 day
[27] = Toxicity in BALB/c mouse allografted with mouse CT26 cells assessed as body weight loss at 40 to 60 mg/kg, ip administered once a day for 10 days; type: organism-based; conditions: in vivo, 240 h, dose 40-60 mg/kg, time 10 day
HCT-116 = assay: Antiproliferative activity against human HCT-116 cells harboring KRAS G13D mutant assessed as inhibition of cell viability after 24 hrs by MTT assay; type: functional, cell-based; conditions: HCT-116, 24 h

COc1ccc(C(F)(F)F)cc1-c1cc2c(N3CC4CCC(C3)N4)ncnc2s1
Activity [1]: 5.05 10^9/L
Activity (SW1990 [2]): 8.76%
Activity [3]: Non-Toxic
IC50 (HeLa): 7400 nM
Activity [4]: Dde
Activity (CT26 [5]): 36.4%
inhibition in vivo at 40 mg/kg (CT26 [6]): 42%
IC50 (PANC-1): 2300 nM
deltaH [7]: -26.6 kcal/mol
Activity (SW1990 [8]): 3.87%
Activity (CT26 [9]): Active
Activity (CT26 [10]): 15.4%
IC50 (CT26 [11]): 2000 nM
Activity (CT26 [12]): 20.9%
Activity [13]: 336 g/L
Activity (SW1990 [14]): 29.2%
inhibition (SW1990 [15]): Dde
Activity (CT26 [16]): Dde
viability at 4 µM (CT26 [17]): 38.8%
Activity [18]: 0.15 10^9/L
Activity [19]: Non-Toxic
Activity [20]: 4.9%
Activity [21]: Non-Toxic
Kd (GTPase KRas): 33 nM
IC50 (SW1990 [22]): 2100 nM
Activity [23]: Dde
viability at 8 µM (CT26 [24]): 8.57%
Activity [25]: 0.41 g/L
Activity [26]: 1.92 10^9/L
Activity [27]: Non-Toxic
IC50 (HCT-116): 4700 nM
